Test results published in patent US20180346505A1, “MONONUCLEOTIDES HAVING A BIOREVERSIBLE DISULFIDE GROUP” (priority 2014, published 2018).
Where two headings read alike, the source gives them in different places.

What was measured:
[1] = Nucleoside phosphoester stability in simulated gastric fluid; type: in vitro ADME; conditions: simulated gastric fluid pH 1.2, 2 μM, 37° C.
Experimental: Test compounds at 2 μM were incubated at 37° C. with simulated gastric fluid (SGF, 0.2% (w/v) sodium chloride in 0.7% (v/v) hydrochloric acid, deionized water, 0.3% pepsin (w/v), pH 1.2). Duplicate samples were used. Samples were removed at 0, 15, 30, 60, 120, 360 and 1440 min, immediately mixed with cold acetonitrile containing internal standard (IS), and stored at −80° C. before analysis. Omeprazole was used as a positive control. Samples were analyzed by LC/MS/MS method, and disappearance of test compound was assessed by comparison of peak area ratios of analyte/IS and reported as % test compound remaining at each time point.

[2] = system: Huh-7 cells; test: Toxicity by CytoTox-1 cell proliferation assay (TC50) and selectivity index; type: cell-based; conditions: TC50 by CytoTox-1 cell proliferation assay over replicon EC50, Huh-7 cells
Experimental: (§1) All the replicon assays were luciferase based in Huh-7 cells, either in stable format (GT1b and GT1a) or by transient transfection by electroporation (chimeric and mutant replicons). For a standard HCV replicon assay, stable or transiently transfected Huh-7 cells were seeded in 96-well plates (5,000 cells/well), cultured in DMEM containing 10% FBS, and incubated at 37° C., 5% CO2. On the following day, test compounds were diluted with assay media and added to the appropriate wells (final DMSO concentration in the cell culture medium was 0.5%). Assay reference positive control was included in each run to ensure assay performance. Cells were incubated at 37° C., 5% CO2 for 72 hours, at which time the cells were still sub-confluent. The antiviral activity was determined by measuring replicon reporter firefly luciferase activity using Bright Glo kit in accordance with the protocol provided by the supplier (Promega). The toxicity of the test compounds was assessed by CytoTox-1 cell proliferation assay (Promega). The half maximal effective concentration (EC50) and the half maximal toxic concentration (TC50) values were calculated using the GraphPad Prism software.

[3] = system: GT1b/3a NS5B chimeric replicon; test: HCV replicon assay, GT1b/3a NS5B chimeric replicon, transient transfection; type: cell-based, hepatitis C virus
Experimental: (§2) The antiviral activity of the test compounds was assessed in the wild type GT1b (Con1), GT1a (H77), and GT1b/2a, GT1b/3a, GT1b/4a and GT1b/5a NS5B chimeric replicons, as well as the NS5B mutant replicons listed in Table 2a and 2b.
To generate HCV NS5B chimeric replicons, the GT1 b replicon was used as a backbone with the NS5B gene replaced with the NS5B gene of GT2a, GT3a, GT4a and GT5a derived from clinical isolates. These NS5B genes were cloned into the GT1b backbone and were confirmed by sequencing.
as §1

[4] = system: GT1b (Con1) HCV replicon; test: HCV replicon assay, wild type GT1b (Con1), luciferase based, stable format; type: cell-based, hepatitis C virus; conditions: Huh-7 cells
Experimental: as §2, §1

[5] = Nucleoside phosphoester stability in simulated intestinal fluid; type: in vitro ADME
Experimental: Test compounds at 2 μM were incubated at 37° C. with simulated intestinal fluid (SIF), which contains 0.68% (w/v) monobasic potassium phosphate and 1% (w/v) pancreatin in ultra-pure water (pH 6.8). Duplicate samples were used. Samples were removed at 0, 15, 30, 60, 120, 360 and 1440 min, immediately mixed with cold acetonitrile containing an internal standard (IS), and stored at −80° C. before analysis. Chlorambucil was used as a positive control. Samples were analyzed by a LC/MS/MS method, and disappearance of test compound was assessed by comparison of peak area ratios of analyte/IS and reported as % test compound remaining at each time point.

[6] = Hepatitis C virus, Huh-7, 72 h, read-out: GT3a EC50, GT1b/3a NS5B chimeric replicon, Huh-7 cells, luciferase, 72 hours
[7] = Hepatitis C virus, GT1B, Huh-7, 72 h
[8] = read-out: GT3a EC50, GT1b/3a NS5B chimeric replicon, Huh-7 cells, luciferase, 72 hours

## COc1ccc2[nH]c([S+]([O-])Cc3ncc(C)c(OC)c3C)nc2c1 (stereo not shown) [Omeprazole, reference compound]
[1]; 0 min
  % Remaining: 100.00%
[1]; 15 min
  % Remaining: 79.48%
[1]; 30 min
  % Remaining: 66.64%
[1]; 60 min
  % Remaining: 34.79%
[1]; 120 min
  % Remaining: 33.00%
[1]; 360 min
  % Remaining: 6.17%
[1]; 1440 min
  % Remaining: 1.24%

## CC(C)(C)SSc1ccccc1CCOP1(=O)OC[C@H]2O[C@@H](n3ccc(=O)[nH]c3=O)[C@](C)(F)[C@@H]2O1 (stereo partly shown) [Compound 7B]
[2]
  Selectivity Index (TC50/EC50): >500
[3]; [6]
  EC50: 14 nM
[4]; [7]
  EC50: 20 nM

## CC(C)(C)SSCCCCOP1(=O)OC[C@H]2O[C@@H](n3ccc(=O)[nH]c3=O)[C@](C)(F)[C@@H]2O1 (single isomer, unassigned) [Compound 6A]
[2]
  Selectivity Index (TC50/EC50): >12
[4]; [7]
  EC50: 840 nM

## CC(C)(C)SSCCCCOP1(=O)OC[C@H]2O[C@@H](n3ccc(=O)[nH]c3=O)[C@](C)(F)[C@@H]2O1 (single isomer, unassigned) [Compound 6B]
[2]
  Selectivity Index (TC50/EC50): >14
[4]; 72 hours
  EC50: 730 nM

## CC(C)(C)SSc1ccccc1CCOP1(=O)OC[C@H]2O[C@@H](n3cnc4c(N)nc(N)nc43)[C@](C)(O)[C@@H]2O1 (single isomer, unassigned) [Compound 16B]
[2]
  Selectivity Index (TC50/EC50): >250
[3]; [8]
  EC50: 5 nM
[4]; 72 hours
  EC50: 40 nM

## CC(C)(C)SSc1ccccc1CCOP1(=O)OC[C@H]2O[C@@H](n3ccc(=O)[nH]c3=O)[C@](C)(O)[C@@H]2O1 (stereo partly shown) [Compound 8A]
[2]
  Selectivity Index (TC50/EC50): >500
[3]; [6]
  EC50: 6 nM
[4]; [7]
  EC50: 10 nM

## CC(C)(C)SSc1ccccc1CCOP1(=O)OC[C@H]2O[C@@H](n3ccc(N)nc3=O)[C@](C)(O)[C@@H]2O1 (single isomer, unassigned) [Compound 10A]
[2]
  Selectivity Index (TC50/EC50): >500
[3]; [6]
  EC50: 41 nM
[4]; [7]
  EC50: 40 nM

## CC(C)(CCO)SSc1ccccc1CCOP1(=O)OC[C@H]2O[C@@H](n3ccc(=O)[nH]c3=O)[C@](C)(F)[C@@H]2O1 (stereo partly shown) [Compound 18A]
[2]
  Selectivity Index (TC50/EC50): >200
[4]; [7]
  EC50: 50 nM

## CC(C)(C)SSc1ccccc1CCOP1(=O)OC[C@H]2O[C@@H](n3ccc(N)nc3=O)[C@](C)(O)[C@@H]2O1 (single isomer, unassigned) [Compound 10B]
[2]
  Selectivity Index (TC50/EC50): >500
[3]; [8]
  EC50: 21 nM
[4]; 72 hours
  EC50: 21 nM

## CC(C)(C)SSc1ccccc1CCOP1(=O)OC[C@H]2O[C@@H](n3cnc4c(N)nc(N)nc43)[C@](C)(O)[C@@H]2O1 (single isomer, unassigned) [Compound 16A]
[2]
  Selectivity Index (TC50/EC50): >500
[3]; [6]
  EC50: 6 nM
[4]; [7]
  EC50: 20 nM

## O=C(O)CCCc1ccc(N(CCCl)CCCl)cc1 [Chlorambucil, reference compound]
[5]; simulated intestinal fluid pH 6.8, 2 μM, 37° C., 0 min
  % Remaining: 100.00%
[5]; simulated intestinal fluid pH 6.8, 2 μM, 37° C., 15 min
  % Remaining: 81.31%
[5]; simulated intestinal fluid pH 6.8, 2 μM, 37° C., 30 min
  % Remaining: 64.39%
[5]; simulated intestinal fluid pH 6.8, 2 μM, 37° C., 60 min
  % Remaining: 34.82%
[5]; simulated intestinal fluid pH 6.8, 2 μM, 37° C., 120 min
  % Remaining: 5.08%
[5]; simulated intestinal fluid pH 6.8, 2 μM, 37° C., 360 min
  % Remaining: 0.00%
[5]; simulated intestinal fluid pH 6.8, 2 μM, 37° C., 1440 min
  % Remaining: 0.00%

## CC(C)(C)SSc1ccccc1CCOP1(=O)OC[C@H]2O[C@@H](n3ccc(N)nc3=O)[C@](C)(F)[C@@H]2O1 (single isomer, unassigned) [Compound 9B]
[1]; 0 min
  % Remaining: 100.00%
[1]; 15 min
  % Remaining: 95.72%
[1]; 30 min
  % Remaining: 98.51%
[1]; 60 min
  % Remaining: 100.39%
[1]; 120 min
  % Remaining: 92.48%
[1]; 360 min
  % Remaining: 65.99%
[1]; 1440 min
  % Remaining: 21.04%
[2]
  Selectivity Index (TC50/EC50): >500
[3]; [8]
  EC50: 29 nM
[4]; 72 hours
  EC50: 13 nM
[5]; simulated gi fluid, 0 h, 2 μM, pH 6.8
  % Remaining: 100.00%
[5]; simulated gi fluid, 0.25 h, 2 μM, pH 6.8
  % Remaining: 98.51%
[5]; simulated gi fluid, 0.5 h, 2 μM, pH 6.8
  % Remaining: 91.63%
[5]; simulated gi fluid, 1 h, 2 μM, pH 6.8
  % Remaining: 99.30%
[5]; simulated gi fluid, 2 h, 2 μM, pH 6.8
  % Remaining: 97.42%
[5]; simulated gi fluid, 6 h, 2 μM, pH 6.8
  % Remaining: 72.51%
[5]; simulated gi fluid, 24 h, 2 μM, pH 6.8
  % Remaining: 33.69%
